Experimental data: patent US4590264A, “Lipoglycosides and process of extracting same” (Wofor AG, priority 1983, dated 1986)
Entries after “also recorded” stand apart in the source; their conditions may differ.

How the values were obtained:
[1] = tested on: tumor cells derived from human carcinoma of the nasopharynx (KB cells); test: KB cell assay: cytotoxicity, cell count (alive, dead) after 48 h incubation; format: cell-based; details: for Cell count after incubation, dead / Cell count after incubation, alive: cell count before incubation = 100, Table 3; for Cell count after incubation, dead: control 0; for Cell count after incubation, alive: control 200
Method: The plant is subjected to extraction in various solvents having different polarities (i.e. dielectric constants) at room temperature for a period of from 1 to 10 days. By room temperature, it is meant from about 20° C. to about 25° C. The extract-containing solvents are each tested for their biological activity. As a measure of biological activity, the cytotoxicity of the extracts against tumor cells derived from human carcinoma of the nasopharynx (KB cells) is measured. Those extracts which show the capability of killing KB cells are fractionated to yield the compounds of the present invention.
A sample of cells was taken from a stock supply furnished by a well known commercial laboratory. The primary culture was Minimal Essential Medium (MEM), Flo Laboratories, 10% fetal calf serum. Trypsinization was conducted with 0.2% trypsin in isotonic NaCl. The cells were counted with 0.1% Tripan Blue. The cells were subcultured in a 5 to 1 split in microtiter plates at 2×10^5 cells per well. The volume of culture placed in each well was 1 ml. The cells were counted at three locations before the addition of the extract to yield an average cell count.
Each of the extracts to be tested was added to the cells at a specific concentration as an ethanolic solution. The cells were incubated at 37° C. for 48 hours. Thereafter, the cells were again counted at three locations to provide an average cell count.
As a control, a cell sample was incubated for the same period in culture medium and without the addition of any plant extract.
Each of the extracts obtained above was tested for its effect on KB cells. The cell culture assay protocol described above was used.

[2] = Solubility in solvents; format: physicochemical; details: solvents as named in the value

CCC1CCCCCCCCCCCCCCCCCCC(=O)OC[C@H]2O[C@@H](O1)[C@H](O)[C@@H](OC(C)=O)[C@@H]2O (stereo partly shown) [Compound II]
Cell count after incubation, dead ([1]; 10 μg/ml): 0.5 | Cell count after incubation, alive ([1]; 10 μg/ml): 104.5 | Cell count after incubation, dead ([1]; 100 μg/ml): 0 | Cell count after incubation, alive ([1]; 100 μg/ml): 0 | activity against KB cells / antitumor activity (in words) [1]: active; also recorded: possess antitumor properties | Solubility (in words) [2]: soluble in CH2 Cl2 and benzene but insoluble in methanol and ether; also recorded: Insoluble in methanol, ethyl ether

CCC1CCCCCCCCCCCCCCCCCCC(=O)OC[C@H]2O[C@@H](O1)[C@H](OC(C)=O)[C@@H](O)[C@@H]2O (stereo partly shown) [Compound I]
Cell count after incubation, dead ([1]; 10 μg/ml): 0 | Cell count after incubation, alive ([1]; 10 μg/ml): 15 | Cell count after incubation, dead ([1]; 100 μg/ml): 0 | Cell count after incubation, alive ([1]; 100 μg/ml): 0 | activity against KB cells / antitumor activity (in words) [1]: active; also recorded: possess antitumor properties | Solubility (in words) [2]: Soluble in CHCl3, methanol; also recorded: Sparingly soluble in acetyl ethyl ether and acetone; also recorded: Insoluble in ethyl ether and petroleum ether

CCC(O)CCCCCCCCCCCCCCCCCCC(=O)OC (stereo not shown) [Example 5, 20-hydroxydocosanoic acid methyl ester]
Solubility (in words) [2]: soluble in n-hexane, benzene and chloroform but insoluble in methanol and acetone
